Test results from PMC10435995 (Life Science Alliance, 2023).

Target: T1, hDHFR (dihydrofolate reductase) (Homo sapiens, UniProt P00374)
T1 construct: gene DHFR; recombinant hDHFR (8456-DR-100; R&D Systems)
T1 sequence (P00374 1-187): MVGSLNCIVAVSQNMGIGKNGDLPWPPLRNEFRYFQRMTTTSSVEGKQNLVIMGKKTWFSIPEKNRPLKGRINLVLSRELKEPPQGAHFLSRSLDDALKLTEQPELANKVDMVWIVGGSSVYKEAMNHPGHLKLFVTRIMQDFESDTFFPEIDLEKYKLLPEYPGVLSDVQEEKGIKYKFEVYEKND
Test: ITC at […]°C without NADPH (also enzyme inhibition, CETSA, TPP)
Assay type: binding
Details: read-out: Average Kd (±s.d.)

**Q.** For Cc1nc(N)nc(N)c1/C=C/C1(c2ccc(C(F)(F)F)cc2)CC1 [C1], which Kd is on record?
**A.** The Kd was 28.1 ± 18.4 nM.
